Results taken from patent publication US20030187056A1, “Live cell procedures to identify to identify compounds modulating intracellular distribution of phosphodiesterase( pde) enzymes” (priority 2000, published 2003).
Values joined by “and” are separate entries in the source; they are usually repeats but may differ in a detail not shown here. Equal values may be shown once. “Also recorded” adds a separate entry of the source. Read-outs that look alike come from different tables or passages of the source.

Assays:
PDE4 [1] = conditions: cited from earlier work; for Inhibition of PDE4 catalytic activity: yes/no
PDE4A probes = assay: Redistribution of the PDE4A probes (summary); format: cell-based; conditions: for redistribution of the PDE4A probes: compound alone
HSPDE4A1-EGFP [2] = molecular target: T1, HSPDE4A1-EGFP (Homo sapiens, UniProt P27815); assay: Competitive assay: reversal of Rolipram-induced spot dispersal, HSPDE4A1-EGFP CHO cells; format: cell-based; conditions: yes/no
T1 construct: the ca. 1.95 kb coding region of HSPDE4A1 (GenBank Acc.no. U97584) is amplified; expressed in transfected cells
T1 sequence (P27815 1-647 isoform P27815-4): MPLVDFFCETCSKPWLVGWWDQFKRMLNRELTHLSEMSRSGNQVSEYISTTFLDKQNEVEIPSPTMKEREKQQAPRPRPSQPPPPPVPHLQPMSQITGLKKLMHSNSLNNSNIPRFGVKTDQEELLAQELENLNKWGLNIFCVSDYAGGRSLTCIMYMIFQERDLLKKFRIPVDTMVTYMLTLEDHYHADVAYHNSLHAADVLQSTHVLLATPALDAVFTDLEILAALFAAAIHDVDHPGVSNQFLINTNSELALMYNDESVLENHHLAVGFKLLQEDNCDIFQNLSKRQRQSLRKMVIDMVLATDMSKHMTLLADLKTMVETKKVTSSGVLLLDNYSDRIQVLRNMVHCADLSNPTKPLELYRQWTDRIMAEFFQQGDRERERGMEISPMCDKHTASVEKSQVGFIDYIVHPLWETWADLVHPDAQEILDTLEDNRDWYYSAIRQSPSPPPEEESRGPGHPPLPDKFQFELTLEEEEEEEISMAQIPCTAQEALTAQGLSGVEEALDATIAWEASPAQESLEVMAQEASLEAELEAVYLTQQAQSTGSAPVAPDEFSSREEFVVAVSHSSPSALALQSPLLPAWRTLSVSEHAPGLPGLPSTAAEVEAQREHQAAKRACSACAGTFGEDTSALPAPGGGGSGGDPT

[3] = molecular target: T2, high affinity Rolipram binding site (HARBS); conditions: read-out: Displacement of [3H] Rolipram (i: μM); Data from Souness and Rao, 1997; cited from earlier work
T2 construct: Displacement of [3H]; Rolipram (i: μM); other: Data from Souness and Rao, 1997

[4] = system: high affinity Rolipram binding site (HARBS); conditions: Data from Souness and Rao, 1997; cited from earlier work
HSPDE4A4-EGFP [5] = molecular target: T3, HSPDE4A4-EGFP (Homo sapiens, UniProt P27815); assay: Spot formation in CHO cells transfected with HSPDE4A4-EGFP; format: cell-based; conditions: for cells with spots: 10 μM denbufylline, 24.5 hours; for Formation of PDE4A4 spots: yes/no; for formation of spots, compound alone (in words): observed up to 24 hours
T3 construct: expressed in transfected cells
T3 sequence (P27815 whole entry): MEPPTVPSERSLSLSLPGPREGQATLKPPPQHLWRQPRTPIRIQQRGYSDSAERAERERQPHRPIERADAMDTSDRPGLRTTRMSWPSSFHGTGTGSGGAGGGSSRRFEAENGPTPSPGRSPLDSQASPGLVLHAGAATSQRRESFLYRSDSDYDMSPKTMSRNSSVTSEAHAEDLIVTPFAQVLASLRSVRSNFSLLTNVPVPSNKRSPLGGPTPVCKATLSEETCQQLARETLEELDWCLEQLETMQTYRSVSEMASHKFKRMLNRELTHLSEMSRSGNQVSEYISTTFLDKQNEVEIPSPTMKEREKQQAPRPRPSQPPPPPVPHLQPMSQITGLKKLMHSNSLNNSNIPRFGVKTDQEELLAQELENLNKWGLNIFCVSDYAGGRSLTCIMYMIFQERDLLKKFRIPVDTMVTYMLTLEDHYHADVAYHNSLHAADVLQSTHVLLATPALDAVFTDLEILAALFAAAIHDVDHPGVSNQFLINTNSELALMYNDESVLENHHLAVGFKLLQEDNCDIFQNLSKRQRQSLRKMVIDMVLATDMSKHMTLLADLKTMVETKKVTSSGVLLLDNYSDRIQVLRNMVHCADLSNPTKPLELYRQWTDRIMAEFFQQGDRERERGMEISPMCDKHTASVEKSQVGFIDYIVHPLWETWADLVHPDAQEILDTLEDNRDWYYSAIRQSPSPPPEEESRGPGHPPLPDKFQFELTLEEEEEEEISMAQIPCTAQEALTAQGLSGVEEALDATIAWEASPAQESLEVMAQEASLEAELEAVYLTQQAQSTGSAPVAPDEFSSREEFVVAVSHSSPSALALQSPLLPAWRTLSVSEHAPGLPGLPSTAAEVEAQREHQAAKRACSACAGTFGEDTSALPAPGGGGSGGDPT
Description: Chinese hamster ovary cells (CHO), are transfected with the plasmids described in Example 1 above using the transfection agent FuGENE™ 6 (Boehringer Mannheim Corp, USA) according to the method recommended by the suppliers. Stable transfectants are selected using 1 mg/ml G418 sulphate (Calbiochem) in the growth medium (HAM's F12 nutrient mix with Glutamax-1, 10% foetal bovine serum (FBS), 100 μg penicillin-streptomycin mixture ml^−1 (GibcoBRL, supplied by Life Technologies, Denmark). Cell are cultured at 37° C. in 100% humidity and conditions of normal atmospheric gases supplemented with 5% CO2.
For fluorescence microscopy, cells are allowed to adhere to Lab-Tek chambered coverglasses (Nalge Nunc International, Naperville USA) for at least 24 hours and are then cultured to about 80% confluence. Cells can also be grown in plastic 96-well plates (Polyfiltronics Packard 96-View Plate or Costar Black Plate, clear bottom; both types tissue culture treated) for imaging purposes. Prior to experiments, the cells are cultured over night without G418 sulphate in HAM F-12 medium with glutamax, 100 μg penicillin-streptomycin mixture ml^−1 and 10% FBS. This medium has low autofluorescence enabling fluorescence microscopy of cells straight from the incubator. For certain tests requiring medium of defined composition, particularly with regard to the presence of specific cell growth factors, the HAM's culture medium is replaced prior to imaging with a buffered saline solution (KRW buffer) containing (in mM) 3.6 KCl, 140 NaCl, 2 NaHCO3, 0.5 NaH2PO4, 0.5 MgSO4, 1.5 CaCl2, 10 Hepes, 5 glucose, pH7.4.
Changes in cellular distribution of a transfected probe can be imaged and quantified in an automated fashion. For this purpose cells are cultured to near 80% to 90% confluence in coverglass chambers or plastic 96-well plates, given the relevant treatment and allowed to respond. At the end of the response period, cells are fixed in 4% formaldehyde buffer (Lillies fixative buffer, pH7.0: Bie and Berntsen A/S, Denmark) for 30 minutes to 2 hours, then washed in phosphate buffered saline (PBS, Life Technologies, Denmark). Nuclear DNA is stained with 1 μM Hoechst 33258 (Molecular Probes, Eugene, Oreg., USA) in PBS for 10 minutes at 25° C., then washed twice in PBS. Automated images are collected on a Nikon Diaphot 300 (Nikon, Japan) using a Nikon Plan Fluor 20X/0.5NA objective lens. The basic microscope is fitted with a motorised specimen stage and motorised focus control (Prior Scientific, Fulbourn, Cambridge UK), excitation filter wheel (Sutter Instruments, Novato Calif. USA) and Photometrics PXL series camera with a KAF1400 CCD chip (Photometrics, Tucson, Ariz. USA), each of these items being under the control of an Macintosh 7200/90 computer (Apple Computer, Cupertino, Calif. USA). Automation of stage positioning, focus, excitation filter selection, and image acquisition is performed using macros written in-house, running under IPLab Spectrum for Macintosh (Scanalytics, Fairfax, Va. USA). Fluorescence illumination comes from a 100 W HBO lamp. Images are collected in pairs, the first using a 340/10 nm excitation filter, the second with a 475RDF40 excitation filter (Chroma, Brattleboro, Vt.). Both images are collected via the same dichroic and emission filters, which are optimised for EGFP applications (XF100 filter set, Omega Optical, Brattleboro, Vt.). While the choice of filters for imaging the nuclear stain (Hoechst 33258) is not well matched to that dye's spectral properties, resulting in lower image intensity, it greatly improves the throughput of the procedure by allowing both images to be collected using the same dichroic and emission filter. This eliminates any image registration problems and focus shifts which would result from using two different filter sets, which would require more steps in the acquisition procedure and more extensive image processing to overcome.

HSPDE4A1-EGFP [6] = molecular target: T1, HSPDE4A1-EGFP; assay: Spot dispersal in CHO cells transfected with HSPDE4A1-EGFP; format: cell-based; conditions: for Removal of PDE4A1 spots: yes/no; for dispersal of PDE4A1 spots (in words): Rolipram 2 micromolar 2 hours, others over the ranges tested
Description: (§1) […] The cells are then fixed with 4% formalin buffer (pH7) for 1 hour, washed with PBS and stained with 1 μM Hoechst 33258 in PBS for 10 minutes at 25° C., then washed twice in PBS. Automated images are collected and analysed for the number of spots per cell as described in Example 2.
as §1

HSPDE4A4-EGFP [7] = molecular target: T3, HSPDE4A4-EGFP; assay: Dispersal of preformed Rolipram-induced spots, HSPDE4A4-EGFP CHO cells; format: cell-based; conditions: for Removal of Rolipram-induced PDE4A4-spots: yes/no
Description: For the microscopic assessment of spot dispersal, stably transfected (non-clonal) cells transfected with the HSPDE4A4-EGFP probe are allowed to adhere to chambered coverglasses in HAM's F12 medium containing 10% FBS. […] Chambered coverglasses are then transferred to a Zeiss 135 inverted microscope for time lapse imaging as described in Example 2, above. At a given point after starting an experiment, a mixture of IBMX and forskolin is added to give final concentrations of 1 mM and 50 μM, respectively. Images are captured at regular intervals to form a time lapse sequence of the response, also as described in Example 2.
The plate is then run in the FLIPR system at 37° C., with addition of IBMX and forskolin to all wells at final concentrations of 500 μM and 50 μM respectively after the first minute. The experiment is continued for a further 45 minutes, readings being taken at intervals of 1 minute.
Non-clonal CHO cells stably transfected with the HSPDE4A4-EGFP probe are allowed to adhere to chambered coverglasses in HAM's F12 medium containing 10% FBS and to grow for 24 hours.
Clonal CHO cells stably transfected with the HSPDE4A4-EGFP probe are allowed to adhere to chambered coverglasses in HAM's F12 medium containing 10% FBS and to grow for 5 days without change of medium, which by this time is serum-depleted.
Individual wells are then treated with either 50 μM forskolin plus 500 μM IBMX or 200 nM PMA plus 2 μM ionomycin.

[8] = human, in vivo; cited from earlier work
[9] = system: cAMP-dependent protein kinases (PKA); conditions: cited from earlier work
PDE4 [10] = system: T4, PDE4; conditions: Saldou et al., 1998; read-out: IC50 against PDE4; cited from earlier work
T4 construct: other: Saldou et al., 1998; Such an enzyme preparation may be obtained from cells transfected with and expressing the PDE4 enzyme chosen

HSPDE4A4-EGFP [11] = molecular target: T3, HSPDE4A4-EGFP; assay: Competitive spot assay: inhibition of Rolipram- or RS25344-induced spot formation, HSPDE4A4-EGFP CHO cells; format: cell-based
Description: (§2) The cells are then fixed with 4% formaldehyde buffer (pH7) for 1 hour, washed with PBS and stained with 1 μM Hoechst 33258 in PBS for 10 minutes at 25° C., then washed twice in PBS. Automated images are collected and analysed for the number of spots per cell as described in Example 2.
as §2

PDE3 [12] = assay: PDE3 inhibition (literature values, PDE3/PDE4 specificity); format: biochemical; conditions: measure of specificity
Source text: These compounds are termed specific to PDE4, since they inhibit other PDEs either weakly or not at all. The inverse ratio between IC50 of a compound to PDE4s versus its inhibition of other cAMP-degrading PDEs, such as PDE3s is often used as a measure of specificity.

PDE3 [13] = conditions: cited from earlier work
HSPDE4A4-EGFP [14] = assay: Formation of small spots in serum-depleted Rolipram-treated HSPDE4A4-EGFP CHO cells; format: cell-based, Homo sapiens; conditions: 1 or 2 μM ionomycin, KRW buffer with 2 μM Rolipram
Description: Clonal CHO cells stably transfected with the HSPDE4A4-EGFP probe are allowed to adhere to chambered coverglasses in HAM's F12 medium containing 10% FBS and to grow for 4 days without change of medium. […] At the end of this time approximately 95% of the cells contain bright spots when viewed on a fluorescence microscope.
Individual wells are then treated first with 1 or 2 μM ionomycin, and then a short time later with 50 μM forskolin plus 500 μM IBMX. Within 1 minute of treatment with ionomycin, at either 1 or 2 μM, small spots form in the cytoplasm of the cells (FIGS. 32a and 32b). This occurs in nearly all cells, whether they contain large Rolipram-induced spots or not. Large spots are not affected in any way during the formation of the smaller spots. The small spots will spontaneously disappear within 10 to 20 minutes. Application of forskolin plus IBMX clears them within minutes (FIG. 33a). The larger spots also disperse in time with this treatment, but more slowly (FIG. 33b). The formation of small spots will not occur in serum-replete cells, or in starved cells that then have been given 10% serum for more than 45 minutes. […] The time course of transient appearance of the small spots of the HSPDE4A4-EGFP probe is consistent with that of the Ca^2+ transient generally elicited by ionomycin in treated cells.

[15] = Data from Souness and Rao, 1997, read-out: PDE4 inhibition (IC50: μM)
[16] = literature values quoted in Example 5 (Saldou 1998; Ahluwalia 1982; Rubin 1991), read-out: IC50 against PDE4

SMILES | IC50 (PDE4 [1]; [15]) | IC50 (PDE4 [1]; [16]) | Inhibition of PDE4 catalytic activity (PDE4 [1]) | redistribution of the PDE4A probes (PDE4A probes) | Reversal of Rolipram-induced removal of PDE4A1 spots (HSPDE4A1-EGFP [2]) | Ki [3] | PDE4/HARBS, ratio (IC50 PDE4)/(Ki for HARBS) [4] | Formation of PDE4A4 spots (HSPDE4A4-EGFP [5]) | Removal of PDE4A1 spots (HSPDE4A1-EGFP [6]) | Removal of Rolipram-induced PDE4A4-spots (HSPDE4A4-EGFP [7]) | Clinical effect [8] | Emesis [8] | formation of spots, compound alone (in words) (HSPDE4A4-EGFP [5]) | dispersal of PDE4A1 spots (in words) (HSPDE4A1-EGFP [6]) | further results
CCCCn1c(=O)c2c(ncn2CC(C)=O)n(CCCC)c1=O [Denbufylline] | 0.2 µM | 1 µM | yes | indistinguishable from those induced by Rolipram treatment | no | 0.0041 µM | 49 | yes | yes | no | anti- | yes |  |  | cells with spots (HSPDE4A4-EGFP [5]): 40%; cells with spots (HSPDE4A4-EGFP [5]; listed as denbufylline): approximately 40%
O=S(=O)(NCCNC/C=C/c1ccc(Br)cc1)c1cccc2cnccc12 [H-89] |  |  |  |  |  |  |  |  |  |  |  |  |  |  | IC50 [9]: ~50 nM; effect on the dispersal of spots induced by IBMX plus forskolin (HSPDE4A4-EGFP [7]; FLIPR, 2 micromolar H-89 pre-treatment 20 minutes): significant effect on the dispersal of spots
COc1ccc(C(=O)Nc2c(Cl)cncc2Cl)cc1OC1CCCC1 [RP73401] | 0.0012 µM |  | yes | induces no redistribution | yes | 0.0004 µM |  | no | no | yes | anti- | no | produces no spots | does not disperse spots; also recorded: no significant spot dispersal | IC50 (PDE4 [10]): 0.3 nM; prevention of the redistribution caused by Rolipram (PDE4A probes; in presence of Rolipram): prevent the redistribution; cells with spots (HSPDE4A4-EGFP [11]; 2 μM Rolipram plus 0.001 μM RP73401, 7.5 hours): less than 5%; spot formation (in words) (HSPDE4A4-EGFP [11]; 2 μM Rolipram plus 0.003 μM RP73401, 7.5 hours): unable to elicit the production of any spots; also recorded: no spots formed in any of the cells; time for dispersal of spots (HSPDE4A4-EGFP [7]; spots formed by 2 μM Rolipram over 16 hours, 1 μM RP73401): ≤ 10 min
COc1cc2c(cc1OC)-c1cc(=Nc3c(C)cc(C)cc3C)n(C)c(=O)n1CC2 [Trequinsin, 9,10-dimethoxy-2-mesitylimino-3-methyl-3,4,6,7-tetrahydro-2H-pyrimido[6,1-a]isoquinolin-4-one] | 0.4 µM | 1 µM |  | no redistribution |  | 1.7 µM | 023 |  |  |  |  |  | Neither compound causes formation of spots | no significant spot dispersal | (IC50 PDE3)/(IC50 PDE4) (PDE3 [12]): 0.00041
CN(C(=O)CCCOc1ccc2[nH]c(=O)ccc2c1)C1CCCCC1 [cilostamide] |  |  |  | no redistribution |  |  |  |  |  |  |  |  | do not produce spots |  | effect on spot formation by 2 μM Rolipram (in words) (HSPDE4A4-EGFP [11]; 500 μM theophylline, 100 μM caffeine, 10 μM milrinone, 0.5 μM cilostamide, 100 μM zaprinast): form the same number and type of bright spots; IC50 (PDE3 [13]): 70 nM
C[C@H](CCC(=O)O)C[C@H](C)C[C@H](C)C(=O)/C=C(\O)[C@H](C)C[C@H](C)C/C=C/[C@@H](C)[C@@H](O)[C@@H](C)[C@@H](O)C[C@@H]1CC[C@@](C)([C@H]2CC[C@@](C)([C@@H](C)O)O2)O1 [ionomycin] |  |  |  |  |  |  |  |  |  |  |  |  |  |  | time to formation of small spots in the cytoplasm (HSPDE4A4-EGFP [14]): ≤ 1 min; cells with bright spots remaining (HSPDE4A4-EGFP [7]; 2 μM ionomycin 50-55 minutes with 2 μM Rolipram, non-clonal, 10% FBS (control 70%)): 20-40% and 20 to 40%; dispersal of Rolipram-induced spots (in words) (HSPDE4A4-EGFP [7]; FBS-replete cells, 200 nM PMA, 2 μM ionomycin, or 50 μM forskolin plus 1 mM IBMX): slowly and in an incomplete manner
